Measurements as given in US9512114B2, “Substituted aminopyrimidine compounds and methods of use” (Calitor Sciences, LLC, priority 2013, dated 2016).

Assays:
[1] = Compound stability in human liver microsomes; assay type: in vitro ADME; settings: pH 7.4; for CLint scaled at 5 μM: liver microsomes, in vivo CLint extrapolated from human liver microsome incubation; for half-life at 5 μM: human liver microsomes 0.5 mg protein/mL, compound 5 μM, NADPH 1.0 mM, 37° C., read-out: Human T1/2
Protocol: (§1) The LC/MS/MS system used in the analysis consists of an Agilent 1200 Series vacuum degasser, binary pump, well-plate autosampler, thermostatted column compartment, the Agilent G6430 Triple Quadrupole Mass Spectrometer with an electrosprayionization (ESI) source. Quantitative analysis was carried out using MRM mode. The parameters for MRM transitions are in the Table A.
(§2) An Agilent XDB-C18, 2.1×30 mm, […] column was used for the analysis. 5 μL of the samples were injected. Analysis condition: The mobile phase was 0.1% formic acid in water (A) and 0.1% formic acid in methanol (B). The flow rate was 0.4 mL/min. And the gradient of Mobile phase was in the Table B.
(§3) Alternatively, an Agilent 6330 series LC/MS/MS spectrometer equipped with G1312A binary pumps, a G1367A autosampler and a G1314C UV detector were used in the analysis. An ESI source was used on the LC/MS/MS spectrometer. The analysis was done in positive ion mode as appropriate and the MRM transition for each analyte was optimized using standard solution. A Capcell MP-C18 100×4.6 mm I.D., […] column (Phenomenex, Torrance, Calif., USA) was used during the analysis. The mobile phase was 5 mM ammonia acetate, 0.1% MeOH in water (A): 5 mM ammonia acetate, 0.1% MeOH in acetonitrile (B) (70:30, v/v). The flow rate was 0.6 mL/min. Column was maintained at ambient temperature. 20 μL of the samples were injected.
(§4) Human or rat liver microsomes incubations were conducted in duplicate in polypropylene tubes. The typical incubation mixtures consisted of human or rat liver microsomes (0.5 mg protein/mL), compounds of interest (5 μM) and NADPH (1.0 mM) in a total volume of 200 μL potassium phosphate buffer (PBS, 100 mM, pH 7.4). Compounds were dissolved in DMSO and diluted with PBS such that the final concentration of DMSO was 0.05%. The enzymatic reactions were commenced with the addition of protein after a 3-min preincubation and incubated in a water bath open to the air at 37° C. Reactions were terminated at various time points (0, 5, 10, 15, 30, 60 min) by adding equal volume of ice-cold acetonitrile. The samples were stored at −80° C. until LC/MS/MS assays.
(§5) The concentrations of compounds in the incubation mixtures of human or rat liver microsomes were determined by a LC/MS/MS method. The ranges of the linearity in the concentration range were determined for each tested compounds.
(§6) A parallel incubation was performed using denatured microsomes as the negative control, and reactions were terminated at various time points (0, 15, 60 min) after incubation at 37° C.
(§7) Dextromethorphan (70 μM) was selected as the positive control, and reactions were terminated at various time points (0, 5, 10, 15, 30, 60 min) after incubation at 37° C. Both positive and negative control samples were included in each assay to ensure the integrity of the microsomal incubation system.
(§8) The concentrations of compounds in human or rat liver microsome incubations were plotted as a percentage of the relevant zero time point control for each reaction. The in vivo CLint were extrapolated (ref.: Naritomi, Y.; Terashita, S.; Kimura, S.; Suzuki, A.; Kagayama, A.; and Sugiyama, Y.; Prediction of human hepatic clearance from in vivo animal experiments and in vitro metabolic studies with liver microsomes from animals and humans. Drug Metab. Dispos., 2001, 29: 1316-1324).

[2] = Compound stability in rat liver microsomes; assay type: in vitro ADME; settings: pH 7.4; for CLint scaled at 5 μM: liver microsomes, in vivo CLint extrapolated from rat liver microsome incubation; for half-life at 5 μM: rat liver microsomes 0.5 mg protein/mL, compound 5 μM, NADPH 1.0 mM, 37° C., read-out: Rat T1/2
Protocol: as §1, §2, §3, §4, §5, §6, §7, §8

[3] = Pharmacokinetic profiles in rats; assay type: in vivo, rat; settings: for Cl/F / AUC(0-t) / half-life / Vd: iv dosing 1 mg/kg; for F: oral vs iv (iv 1 mg/kg; p.o. generally 5 or 10 mg/kg); for AUC(0-t) / half-life / Vd: rat, plasma; for Vd: read-out: Vss
Protocol: The compounds disclosed herein are assessed in pharmacokinetic studies in mice, rats, dogs or monkeys. The compounds are administered as a water solution, 2% HPMC+1% TWEEN®80 in water solution, 5% DMSO+5% solutol in saline, 4% MC suspension or capsule. For the intravenous administration, the animals are generally given at 1 or 2 mg/kg dose. For the oral (p.o.) dosing, mice and rats are generally given 5 or 10 mg/kg dose, and dogs and monkeys are generally given 10 mg/kg dose. The blood samples (0.3 mL) are drawn at 0.25, 0.5, 1.0, 2.0, 3.0, 4.0, 6.0, 8.0, 12 and 24 h time points or 0.083, 0.25, 0.5, 1.0, 2.0, 4.0, 6.0, 8.0 and 24 h time points and centrifuged at 3,000 or 4000 rpm for 2 to 10 min. The plasma solutions are collected, stored at −20° C. or −70° C. until analyzed by LC/MS/MS as described above.

Row | SMILES | CLint scaled at 5 μM [1] | half-life at 5 μM [1] | CLint scaled at 5 μM [2] | half-life at 5 μM [2] | Cl/F [3] | F [3] | AUC(0-t) [3] | half-life [3] | Vd [3]
1 | CC[C@H](Nc1ncnc(N)c1-c1nc(C)no1)c1cc2cccc(Cl)c2c(=O)n1-c1ccccc1 [Ex. 3, (S)-3-(1-((6-amino-5-(3-methyl-1,2,4-oxadiazol-5-yl)pyrimidin-4-yl)amino)propyl)-8-chloro-2-phenylisoquinolin-1(2H)-one] | 134 mL/min/kg | 12.9 min | 148 mL/min/kg | 16.7 min | 128 mL/min/kg | 12.71% | 131 ng·h/mL | 44.4 min | 4.96 L/kg
2 | CC[C@H](Nc1ncnc(N)c1-c1nnc(C)o1)c1cc2cccc(C)c2c(=O)n1C1CC1 [Ex. 6, (S)-3-(1-((6-amino-5-(5-methyl-1,3,4-oxadiazol-2-yl)pyrimidin-4-yl)amino)propyl)-2-cyclopropyl-8-methylisoquinolin-1(2H)-one] | 93.1 mL/min/kg | 18.7 min | 324 mL/min/kg | 7.66 min | 62.3 mL/min/kg | 48.66% | 266 ng·h/mL | 51.6 min | 4.08 L/kg
3 | CC[C@H](Nc1ncnc(N)c1-c1nnc(C)o1)c1cc2cccc(Cl)c2c(=O)n1C1CC1 [Ex. 10, S)-3-(1-((6-amino-5-(5-methyl-1,3,4-oxadiazol-2-yl)pyrimidin-4-yl)aminopropyl)-8-chloro-2-cyclopropylisoquinolin-1(2H)-one] | 86.9 mL/min/kg | 20 min | 169 mL/min/kg | 14.7 min | 50 mL/min/kg | 81.33% | 333 ng·h/mL | 86.4 min | 5.35 L/kg
4 | CC[C@H](Nc1ncnc(N)c1-c1nnn(C)n1)c1cc2cccc(Cl)c2c(=O)n1C1CC1 [Ex. 13, (S)-3-(1-((6-amino-5-(2-methyl-2H-tetrazol-5-yl)pyrimidin-4-yl)amino)propyl)-8-chloro-2-cyclopropylisoquinolin-1(2H)-one] | 157 mL/min/kg | 11.1 min | 137 mL/min/kg | 18.2 min | 36.2 mL/min/kg | 67.9% | 465 ng·h/mL | 99.6 min | 4.42 L/kg
5 | CCCCOC(=O)c1nc(-c2c(N)ncnc2N[C@@H](CC)c2cc3cccc(Cl)c3c(=O)n2C2CC2)nn1C [Ex. 14, (S)-butyl 3-(4-amino-6-((1-(8-chloro-2-cyclopropyl-1-oxo-1,2-dihydro-isoquinolin-3-yl)propyl)amino)pyrimidin-5-yl)-1-methyl-1H-1,2,4-triazole-5-carboxylate] | 225 mL/min/kg | 7.73 min | 125 mL/min/kg | 19.9 min | – | – | – | – | –

The next lines start with the values.

Row | CLint scaled at 5 μM [1] | half-life at 5 μM [1] | CLint scaled at 5 μM [2] | half-life at 5 μM [2] | Cl/F [3] | F [3] | AUC(0-t) [3] | half-life [3] | Vd [3] | SMILES
6 | 287 mL/min/kg | 6.06 min | 99.9 mL/min/kg | 24.9 min | 22.7 mL/min/kg | 48.92% | 758 ng·h/mL | 51.6 min | 0.92 L/kg | C[C@H](Nc1ncnc(N)c1-c1nnn(C)n1)c1cc2cccc(Cl)c2c(=O)n1-c1ccccc1 [Ex. 15, (S)-3-(1-((6-amino-5-(2-methyl-2H-tetrazol-5-yl)pyrimidin-4-yl)amino)ethyl)-8-chloro-2-phenylisoquinolin-1(2H)-one]
7 | 258 mL/min/kg | 6.73 min | 130 mL/min/kg | 19.2 min | – | – | – | – | – | CC[C@H](Nc1ncnc(N)c1-c1noc(C)n1)c1cc2cccc(Cl)c2c(=O)n1C1CC1 [Ex. 21, (S)-3-(1-((6-amino-5-(5-methyl-1,2,4-oxadiazol-3-yl)pyrimidin-4-yl)amino)propyl)-8-chloro-2-cyclopropylisoquinolin-1(2H)-one]
8 | 479 mL/min/kg | 3.63 min | 456 mL/min/kg | 5.45 min | – | – | – | – | – | Cc1noc(-c2c(N)ncnc2N[C@@H](C)c2cc3cccc(Cl)c3c(=O)n2-c2cccc(F)c2)n1 [Ex. 23, (S)-3-(1-((6-amino-5-(3-methyl-1,2,4-oxadiazol-5-yl)pyrimidin-4-yl)amino)ethyl)-8-chloro-2-(3-fluorophenyl)isoquinolin-1(2H)-one]
